Laboratory results from ChEMBL document CHEMBL1201862, “PubChem BioAssay data set” (2004).
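Following 48 hours of exposure in 96-well plates, responses at five concentrations were used to interpolate endpoints linearly. GI50 is the concentration that inhibits growth by half.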 Activity calls are given as the source filed them. Cut-off read from the data, not from the text of the source: active = GI50 up to about 1.1 µM and inactive = higher.

Tests used:
Assay in all cases: DTP human tumour cell line panel, 48 h
[1] = test system: IGROV-1
[2] = test system: DU-145
[3] = test system: M14
[4] = test system: HT-29
[5] = test system: NCI/ADR-RES
[6] = test system: LOX IMVI
[7] = test system: NCI-H226
[8] = test system: HCC 2998
[9] = test system: OVCAR-8
[10] = test system: SK-OV-3
[11] = test system: MCF7
[12] = test system: SK-MEL-2
[13] = test system: T47D
[14] = test system: RXF 393
[15] = test system: SF-295
[16] = test system: U-251
[17] = test system: HL-60
[18] = test system: SF-539
[19] = test system: RPMI-8226
[20] = test system: SNB-75
[21] = test system: OVCAR-5
[22] = test system: HCT-116
[23] = test system: SW-620
[24] = test system: SK-MEL-5
[25] = test system: OVCAR-3
[26] = test system: CAKI-1
[27] = test system: MDA-MB-231
[28] = test system: HCT-15
[29] = test system: EKVX
[30] = test system: UO-31
[31] = test system: SNB-19
[32] = test system: NCI-H460
[33] = test system: MOLT-4
[34] = test system: OVCAR-4
[35] = test system: HOP-92
[36] = test system: TK-10
[37] = test system: 786-0
[38] = test system: SR
[39] = test system: ACHN
[40] = test system: BT-549
[41] = test system: KM12
[42] = test system: MDA-N
[43] = test system: NCI-H522
[44] = test system: NCI-H23
[45] = test system: COLO 205
[46] = test system: K562
[47] = test system: Hs-578T
[48] = test system: UACC-62
[49] = test system: CCRF-CEM
[50] = test system: SF-268
[51] = test system: A549
[52] = test system: SK-MEL-28
[53] = test system: PC-3
[54] = test system: UACC-257
[55] = test system: Malme-3M
[56] = test system: A498
[57] = test system: MDA-MB-435
[58] = test system: HOP-62
[59] = test system: SN12C

Which results are given for `CCOC(=O)C1=CN(Cc2ccccc2)C2ON=C(c3ccc(Cl)cc3)C2C1` (stereo not drawn)?
GI50 [1]: 29.5 µM (inactive); GI50 [2]: > 55 µM (inactive); GI50 [3]: > 54.7 µM (inactive); GI50 [4]: 48.6 µM (inactive); GI50 [5]: > 54.6 µM (inactive); GI50 [6]: > 57.5 µM (inactive); GI50 [7]: > 56.2 µM (inactive); GI50 [8]: > 100 µM (inactive); GI50 [9]: > 54 µM (inactive); GI50 [10]: > 63.7 µM (inactive); GI50 [11]: 23.6 µM (inactive); GI50 [12]: 15.2 µM (inactive); GI50 [13]: 5.61 µM (inactive); GI50 [14]: 38.6 µM (inactive); GI50 [15]: 45.6 µM (inactive); GI50 [16]: 13.5 µM (inactive); GI50 [17]: 23.4 µM (inactive); GI50 [18]: > 55 µM (inactive); GI50 [19]: 22 µM (inactive); GI50 [20]: 44.3 µM (inactive); GI50 [21]: 34.4 µM (inactive); GI50 [22]: 19.9 µM (inactive); GI50 [23]: > 52.5 µM (inactive); GI50 [24]: 16.5 µM (inactive); GI50 [25]: 39.3 µM (inactive); GI50 [26]: > 52.6 µM (inactive); GI50 [27]: 10.6 µM (inactive); GI50 [28]: > 32.4 µM; GI50 [29]: 20.6 µM (inactive); GI50 [30]: 26.9 µM (inactive); GI50 [31]: > 100 µM (inactive); GI50 [32]: 40.5 µM (inactive); GI50 [33]: 5.4 µM (inactive); GI50 [34]: 42 µM (inactive); GI50 [35]: 18.8 µM (inactive); GI50 [36]: > 60.5 µM (inactive); GI50 [37]: 54.7 µM (inactive); GI50 [38]: > 23.9 µM (inactive); GI50 [39]: 31 µM (inactive); GI50 [40]: 32.4 µM (inactive); GI50 [41]: 48.2 µM (inactive); GI50 [42]: 17.9 µM (inactive); GI50 [43]: 10.4 µM (inactive); GI50 [44]: 35 µM (inactive); GI50 [45]: > 51.3 µM (inactive); GI50 [46]: 5 µM (inactive); GI50 [47]: 11.6 µM (inactive); GI50 [48]: 17.1 µM (inactive); GI50 [49]: 9.1 µM (inactive); GI50 [50]: > 42.1 µM (inactive); GI50 [51]: 17.6 µM (inactive); GI50 [52]: > 56.2 µM (inactive); GI50 [53]: > 36.6 µM (inactive); GI50 [54]: 33.3 µM (inactive); GI50 [55]: > 55 µM (inactive); GI50 [56]: > 42.6 µM (inactive); GI50 [57]: 29 µM (inactive); GI50 [58]: > 55.5 µM (inactive); GI50 [59]: > 52 µM (inactive)

What does the source list for `N#CC(c1ccnc(Cl)n1)c1nc2ccccc2s1` (stereo not drawn)?
GI50 [1]: 3.65 µM (inactive); GI50 [2]: 19.6 µM (inactive); GI50 [3]: 3.76 µM (inactive); GI50 [4]: 2.88 µM (inactive); GI50 [5]: 2.67 µM (inactive); GI50 [6]: 3.55 µM (inactive); GI50 [7]: 3.76 µM (inactive); GI50 [8]: 25.4 µM (inactive); GI50 [9]: 3.78 µM (inactive); GI50 [10]: 3.21 µM (inactive); GI50 [11]: 3.68 µM (inactive); GI50 [12]: 3.52 µM (inactive); GI50 [13]: 4.19 µM (inactive); GI50 [14]: 4.44 µM (inactive); GI50 [15]: 8.49 µM (inactive); GI50 [16]: 3.38 µM (inactive); GI50 [17]: 1.17 µM (inactive); GI50 [18]: 3.88 µM (inactive); GI50 [19]: 3.54 µM (inactive); GI50 [20]: 2.36 µM (inactive); GI50 [21]: 9.53 µM (inactive); GI50 [22]: 2.58 µM (inactive); GI50 [23]: 4.3 µM (inactive); GI50 [24]: 1.33 µM (inactive); GI50 [25]: 5.55 µM (inactive); GI50 [26]: 3.87 µM (inactive); GI50 [27]: 2.91 µM (inactive); GI50 [28]: 3.44 µM; GI50 [29]: 20.2 µM (inactive); GI50 [30]: 4.07 µM (inactive); GI50 [31]: 4.35 µM (inactive); GI50 [32]: 3.61 µM (inactive); GI50 [33]: 3.55 µM (inactive); GI50 [34]: 6.9 µM (inactive); GI50 [35]: 2.77 µM (inactive); GI50 [36]: 7.33 µM (inactive); GI50 [37]: 3.78 µM (inactive); GI50 [38]: 3.03 µM (inactive); GI50 [39]: 13.7 µM (inactive); GI50 [40]: 3.29 µM (inactive); GI50 [41]: 4.37 µM (inactive); GI50 [42]: 3.38 µM (inactive); GI50 [43]: 1.6 µM (inactive); GI50 [44]: 2.48 µM (inactive); GI50 [45]: 10.4 µM (inactive); GI50 [46]: 2 µM (inactive); GI50 [47]: 7.74 µM (inactive); GI50 [48]: 3.21 µM (inactive); GI50 [49]: 0.063 µM (active); GI50 [50]: 4.98 µM (inactive); GI50 [51]: 8.59 µM (inactive); GI50 [52]: 10.8 µM (inactive); GI50 [53]: 3.78 µM (inactive); GI50 [54]: 6.19 µM (inactive); GI50 [55]: 2.7 µM (inactive); GI50 [56]: 15.8 µM (inactive); GI50 [57]: 3.92 µM (inactive); GI50 [58]: 18.7 µM (inactive); GI50 [59]: 2.87 µM (inactive)
